Tests used:
Format in all cases: in vivo
[1] = system: ragweed (common ragweed, Ambrosia elatior); test: Test C preemergence, plant response rating; settings: Preemergence
How it was run: (§1)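 Greenhouse plants rated visually against untreated controls 13–15 d after treatment, scale 0 = no effect to 100 = complete control. Postemergence sprays went onto potted plants 2–18 cm tall (1–4 leaves); preemergence sprays onto soil freshly sown in loam–sand or silt loam, chemicals formulated in non-phytotoxic solvent with surfactant.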

[2] = system: foxtail, giant (giant foxtail, Setaria faberii); test: Test C preemergence, plant response rating; settings: Preemergence
How it was run: as §1

[3] = system: morningglory (Ipomoea coccinea); test: Test C preemergence, plant response rating; settings: Preemergence
How it was run: as §1

[4] = system: waterhemp (common waterhemp, Amaranthus rudis); test: Test C preemergence, plant response rating; settings: Preemergence
How it was run: as §1

[5] = system: nutsedge, yellow (yellow nutsedge, Cyperus esculentus); test: Test C preemergence, plant response rating; settings: Preemergence
How it was run: as §1

[6] = system: blackgrass (Alopecurus myosuroides); test: Test C preemergence, plant response rating; settings: Preemergence
How it was run: as §1

[7] = system: soybean (Glycine max); test: Test C preemergence, plant response rating; settings: Preemergence
How it was run: as §1

[8] = system: wheat (winter wheat, Triticum aestivum); test: Test C preemergence, plant response rating; settings: Preemergence
How it was run: as §1

[9] = system: velvetleaf (Abutilon theophrasti); test: Test C preemergence, plant response rating; settings: Preemergence
How it was run: as §1

[10] = system: oilseed rape (Brassica napus); test: Test C preemergence, plant response rating; settings: Preemergence
How it was run: as §1

[11] = system: ryegrass, Italian (Italian ryegrass, Lolium multiflorum); test: Test C preemergence, plant response rating; settings: Preemergence
How it was run: as §1

[12] = system: corn (Zea mays); test: Test C preemergence, plant response rating; settings: Preemergence
How it was run: as §1

[13] = system: crabgrass, large (large crabgrass, Digitaria sanguinalis); test: Test C preemergence, plant response rating; settings: Preemergence
How it was run: as §1

[14] = system: lambsquarters (Chenopodium album); test: Test C preemergence, plant response rating; settings: Preemergence
How it was run: as §1

[15] = system: galium (catchweed bedstraw, Galium aparine); test: Test A postemergence, visual injury rating; settings: 0 is no effect, 100 is complete control; for Galium plant response rating: 0 to 100 scale, approximately 10 days
How it was run: (§2)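 Visual 0–100 rating (100 = complete control) taken about 10 d post-treatment relative to untreated checks. Preemergence: directed soil spray on sown loam/sand pots. Postemergence: seedlings 2–10 cm, 1–2 leaf. Non-phytotoxic solvent formulation with surfactant.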

[16] = system: barnyardgrass (Echinochloa crus-galli); test: Test A postemergence, visual injury rating; settings: 0 is no effect, 100 is complete control; for Barnyardgrass plant response rating: 0 to 100 scale, approximately 10 days
How it was run: as §2

[17] = system: blackgrass (Alopecurus myosuroides); test: Test A postemergence, visual injury rating; settings: 0 is no effect, 100 is complete control; for Blackgrass plant response rating: 0 to 100 scale, approximately 10 days
How it was run: as §2

Structure (SMILES): N#Cc1cccc(Oc2ncc(Cl)cn2)c1COCCC(F)(F)F [Compound 80]
- Plant response rating, Ragweed ([1]; 125 g ai/ha, scale of 0 to 100): 20
- Plant response rating, Ragweed ([1]; 31 g ai/ha, scale 0 to 100): 0
- Plant response rating, Ragweed ([1]; 62 g ai/ha, scale 0 to 100): 5
- Plant response rating, Foxtail, Giant ([2]; 62 g ai/ha, scale of 0 to 100): 85
- Plant response rating, Foxtail, Giant ([2]; 125 g ai/ha, scale of 0 to 100): 100
- Plant response rating, Foxtail, Giant ([2]; 31 g ai/ha, scale 0 to 100): 40
- Plant response rating, Morningglory ([3]; 125 g ai/ha, scale of 0 to 100): 75
- Plant response rating, Morningglory ([3]; 31 g ai/ha, scale 0 to 100): 20
- Plant response rating, Morningglory ([3]; 62 g ai/ha, scale 0 to 100): 40
- Plant response rating, Waterhemp ([4]; 125 g ai/ha, scale of 0 to 100): 100
- Plant response rating, Waterhemp ([4]; 31 g ai/ha, scale 0 to 100): 100
- Plant response rating, Waterhemp ([4]; 62 g ai/ha, scale 0 to 100): 100
- Plant response rating, Nutsedge, Yellow ([5]; 125 g ai/ha, scale of 0 to 100): 35
- Plant response rating, Nutsedge, Yellow ([5]; 31 g ai/ha, scale 0 to 100): 0
- Plant response rating, Nutsedge, Yellow ([5]; 62 g ai/ha, scale 0 to 100): 0
- Plant response rating, Blackgrass ([6]; 62 g ai/ha, scale of 0 to 100): 70
- Plant response rating, Blackgrass ([6]; 125 g ai/ha, scale of 0 to 100): 90
- Plant response rating, Blackgrass ([6]; 16 g ai/ha, scale 0 to 100): 5
- Plant response rating, Blackgrass ([6]; 31 g ai/ha, scale 0 to 100): 10
- Plant response rating, Soybean ([7]; 125 g ai/ha, scale of 0 to 100): 85
- Plant response rating, Soybean ([7]; 31 g ai/ha, scale 0 to 100): 20
- Plant response rating, Soybean ([7]; 62 g ai/ha, scale 0 to 100): 40
- Plant response rating, Wheat ([8]; 125 g ai/ha, scale of 0 to 100): 15
- Plant response rating, Wheat ([8]; 31 g ai/ha, scale 0 to 100): 0
- Plant response rating, Wheat ([8]; 62 g ai/ha, scale 0 to 100): 0
- Plant response rating, Velvetleaf ([9]; 125 g ai/ha, scale of 0 to 100): 100
- Plant response rating, Velvetleaf ([9]; 31 g ai/ha, scale 0 to 100): 55
- Plant response rating, Velvetleaf ([9]; 62 g ai/ha, scale 0 to 100): 70
- Plant response rating, Oilseed Rape ([10]; 125 g ai/ha, scale of 0 to 100): 100
- Plant response rating, Oilseed Rape ([10]; 31 g ai/ha, scale 0 to 100): 80
- Plant response rating, Oilseed Rape ([10]; 62 g ai/ha, scale 0 to 100): 70
- Plant response rating, Ryegrass, Italian ([11]; 125 g ai/ha, scale of 0 to 100): 25
- Plant response rating, Ryegrass, Italian ([11]; 31 g ai/ha, scale 0 to 100): 0
- Plant response rating, Ryegrass, Italian ([11]; 62 g ai/ha, scale 0 to 100): 5
- Plant response rating, Corn ([12]; 62 g ai/ha, scale of 0 to 100): 5
- Plant response rating, Corn ([12]; 125 g ai/ha, scale of 0 to 100): 20
- Plant response rating, Corn ([12]; 16 g ai/ha, scale 0 to 100): 0
- Plant response rating, Corn ([12]; 31 g ai/ha, scale 0 to 100): 5
- Plant response rating, Crabgrass, Large ([13]; 62 g ai/ha, scale of 0 to 100): 100
- Plant response rating, Crabgrass, Large ([13]; 125 g ai/ha, scale of 0 to 100): 98
- Plant response rating, Crabgrass, Large ([13]; 16 g ai/ha, scale 0 to 100): 55
- Plant response rating, Crabgrass, Large ([13]; 31 g ai/ha, scale 0 to 100): 80
- Plant response rating, Lambsquarters ([14]; 125 g ai/ha, scale of 0 to 100): 98
- Plant response rating, Lambsquarters ([14]; 31 g ai/ha, scale 0 to 100): 70
- Plant response rating, Lambsquarters ([14]; 62 g ai/ha, scale 0 to 100): 95
- Galium plant response rating ([15]; 31 g ai/ha): 60
- Galium plant response rating (0 to 100 scale) ([15]; 125 g ai/ha): 90
- Barnyardgrass plant response rating ([16]; 31 g ai/ha): 30
- Barnyardgrass plant response rating (0 to 100 scale) ([16]; 125 g ai/ha): 90
- Blackgrass plant response rating ([17]; 31 g ai/ha): 30
- Blackgrass plant response rating (0 to 100 scale) ([17]; 125 g ai/ha): 90

Structure (SMILES): O=C(CCCC(F)(F)F)c1c(Oc2ncc(Cl)cn2)cccc1C(F)(F)F [Compound 125]
- Plant response rating, Ragweed ([1]; 125 g ai/ha, scale of 0 to 100): 35
- Plant response rating, Ragweed ([1]; 31 g ai/ha, scale 0 to 100): 10
- Plant response rating, Ragweed ([1]; 62 g ai/ha, scale 0 to 100): 5
- Plant response rating, Foxtail, Giant ([2]; 125 g ai/ha, scale of 0 to 100): 100
- Plant response rating, Foxtail, Giant ([2]; 31 g ai/ha, scale 0 to 100): 85
- Plant response rating, Foxtail, Giant ([2]; 62 g ai/ha, scale 0 to 100): 98
- Plant response rating, Morningglory ([3]; 125 g ai/ha, scale of 0 to 100): 50
- Plant response rating, Morningglory ([3]; 31 g ai/ha, scale 0 to 100): 10
- Plant response rating, Morningglory ([3]; 62 g ai/ha, scale 0 to 100): 10
- Plant response rating, Waterhemp ([4]; 125 g ai/ha, scale of 0 to 100): 100
- Plant response rating, Waterhemp ([4]; 31 g ai/ha, scale 0 to 100): 100
- Plant response rating, Waterhemp ([4]; 62 g ai/ha, scale 0 to 100): 100
- Plant response rating, Nutsedge, Yellow ([5]; 125 g ai/ha, scale of 0 to 100): 5
- Plant response rating, Nutsedge, Yellow ([5]; 31 g ai/ha, scale 0 to 100): 0
- Plant response rating, Nutsedge, Yellow ([5]; 62 g ai/ha, scale 0 to 100): 0
- Plant response rating, Blackgrass ([6]; 125 g ai/ha, scale of 0 to 100): 90
- Plant response rating, Blackgrass ([6]; 16 g ai/ha, scale 0 to 100): 5
- Plant response rating, Blackgrass ([6]; 31 g ai/ha, scale 0 to 100): 60
- Plant response rating, Blackgrass ([6]; 62 g ai/ha, scale 0 to 100): 60
- Plant response rating, Soybean ([7]; 125 g ai/ha, scale of 0 to 100): 20
- Plant response rating, Soybean ([7]; 31 g ai/ha, scale 0 to 100): 0
- Plant response rating, Soybean ([7]; 62 g ai/ha, scale 0 to 100): 0
- Plant response rating, Wheat ([8]; 125 g ai/ha, scale of 0 to 100): 5
- Plant response rating, Wheat ([8]; 31 g ai/ha, scale 0 to 100): 0
- Plant response rating, Wheat ([8]; 62 g ai/ha, scale 0 to 100): 0
- Plant response rating, Velvetleaf ([9]; 125 g ai/ha, scale of 0 to 100): 65
- Plant response rating, Velvetleaf ([9]; 31 g ai/ha, scale 0 to 100): 5
- Plant response rating, Velvetleaf ([9]; 62 g ai/ha, scale 0 to 100): 60
- Plant response rating, Oilseed Rape ([10]; 125 g ai/ha, scale of 0 to 100): 80
- Plant response rating, Oilseed Rape ([10]; 31 g ai/ha, scale 0 to 100): 5
- Plant response rating, Oilseed Rape ([10]; 62 g ai/ha, scale 0 to 100): 50
- Plant response rating, Ryegrass, Italian ([11]; 125 g ai/ha, scale of 0 to 100): 85
- Plant response rating, Ryegrass, Italian ([11]; 31 g ai/ha, scale 0 to 100): 30
- Plant response rating, Ryegrass, Italian ([11]; 62 g ai/ha, scale 0 to 100): 40
- Plant response rating, Corn ([12]; 125 g ai/ha, scale of 0 to 100): 5
- Plant response rating, Corn ([12]; 16 g ai/ha, scale 0 to 100): 0
- Plant response rating, Corn ([12]; 31 g ai/ha, scale 0 to 100): 0
- Plant response rating, Corn ([12]; 62 g ai/ha, scale 0 to 100): 5
- Plant response rating, Crabgrass, Large ([13]; 125 g ai/ha, scale of 0 to 100): 100
- Plant response rating, Crabgrass, Large ([13]; 16 g ai/ha, scale 0 to 100): 35
- Plant response rating, Crabgrass, Large ([13]; 31 g ai/ha, scale 0 to 100): 98
- Plant response rating, Crabgrass, Large ([13]; 62 g ai/ha, scale 0 to 100): 100
- Plant response rating, Lambsquarters ([14]; 125 g ai/ha, scale of 0 to 100): 95
- Plant response rating, Lambsquarters ([14]; 31 g ai/ha, scale 0 to 100): 30
- Plant response rating, Lambsquarters ([14]; 62 g ai/ha, scale 0 to 100): 60
- Galium plant response rating ([15]; 125 g ai/ha): 100
- Galium plant response rating (0 to 100 scale) ([15]; 500 g ai/ha): 100
- Barnyardgrass plant response rating ([16]; 125 g ai/ha): 30
- Barnyardgrass plant response rating (0 to 100 scale) ([16]; 500 g ai/ha): 90
- Blackgrass plant response rating ([17]; 125 g ai/ha): 30
- Blackgrass plant response rating (0 to 100 scale) ([17]; 500 g ai/ha): 90
